Source: publication PMC9698716, “From Serendipity to Rational Identification of the 5,6,7,8-Tetrahydrobenzo[4,5]thieno[2,3-d]pyrimidin-4(3H)-one Core as a New Chemotype of AKT1 Inhibitors for Acute Myeloid Leukemia” (Pharmaceutics, 2022)

Legend:
Type in all cases: cell-based, human
[1] = tested on: OCI-AML3; assay: Apoptosis by flow cytometry (Annexin V/7AAD); conditions: OCI-AML3, 5 µM, 48 h
Method: (§1) The cell apoptosis was assessed using Annexin V APC- or FITC-conjugated antibodies and counterstained with Propidium Iodide (PI) or 7AAD for the detection of necrotic cells (Becton Dickinson, Franklin Lakes, NJ, USA), according to the manufacturer’s protocol. The data acquisition and analysis were done with a FACS Canto II flow cytometer and data were acquired and analyzed using Diva software (Becton Dickinson, Franklin Lakes, NJ, USA).

[2] = tested on: OCI-AML2; assay: Apoptosis by flow cytometry (Annexin V/7AAD); conditions: OCI-AML2, 5 µM, 48 h
Method: as §1

[3] = tested on: IMS-M2; assay: Apoptosis by flow cytometry (Annexin V/7AAD); conditions: IMS-M2, 5 µM, 48 h
Method: as §1

[4] = tested on: normal donor CD34+ hematopoietic stem/progenitor cells (HSPC); assay: Colony forming unit (CFU) assay; conditions: 14 days
Text: The human AML cell lines, OCI-AML3 (carrying the NPM1 gene mutation A and the DNMT3A^R882C mutation), IMS-M2 (carrying the NPM1 gene mutation A), OCI-AML2 (with the wild-type NPM1 and DNMT3A^R635W mutation), and SKM-1 and MOLM-13 (with the wild-type NPM1) were previously reported. The cell lines were purchased from the Deutsche Sammelung von Mikroorganismen und Zellkulturen (DSMZ) (Braunschweig, Germany) cell bank and maintained according to the vendors’ instructions. Briefly, cultured cells were split every 3 days and maintained in an exponential growth phase. The cell lines were tested for mycoplasma using the Universal Mycoplasma Detection Kit (ATCC). The OCI-AML3 were grown in α-MEM supplemented with 20% fetal bovine serum, 100 U/mL penicillin, and 100 μg/mL streptomycin (P/S), and all other cell lines were cultured in RPMI and supplemented with a 10–20% fetal bovine serum and 100 U/mL penicillin and 100 μg/mL streptomycin. The cells were kept at 37 °C in a 5% CO2 incubator. Prior to screening, the appropriate cell concentration for all cell lines was determined. […] The metabolic cell activity was measured by using the CellTiter Blue proliferation agent (Roche) as described in the manufacturer’s procedure. […] The fluorescence intensity was measured using the automated Tecan plate reader (Tecan Group Ltd., Männedorf, Switzerland) at an excitation/emission wavelength of 531/572 nm. The fluorescence readouts were reported as relative fluorescence units (RFU) and read on a luminescence plate reader (Infinite 200 Pro, Tecan, CA, USA). […] The results are expressed as mean ± standard error of the mean (SEM). […]
For the CFU assay, 500 CD34+ human cells were plated in a MethoCult™ enriched medium (see Table S4) on a 6-well plate (untreated cells versus T126 at 1, 2.5, and 5 µM, each condition in triplicate). The plates were then incubated for 14 days at 37 °C (5% CO2), and the images were captured and the colonies counted by STEMvision™. […]

[5] = tested on: SKM-1; assay: CellTiter Blue cell viability assay; conditions: Homo sapiens, SKM-1, 48 h; read-out: cellular IC50
Text: (§2) The human AML cell lines, OCI-AML3 (carrying the NPM1 gene mutation A and the DNMT3A^R882C mutation), IMS-M2 (carrying the NPM1 gene mutation A), OCI-AML2 (with the wild-type NPM1 and DNMT3A^R635W mutation), and SKM-1 and MOLM-13 (with the wild-type NPM1) were previously reported. The cell lines were purchased from the Deutsche Sammelung von Mikroorganismen und Zellkulturen (DSMZ) (Braunschweig, Germany) cell bank and maintained according to the vendors’ instructions. Briefly, cultured cells were split every 3 days and maintained in an exponential growth phase. The cell lines were tested for mycoplasma using the Universal Mycoplasma Detection Kit (ATCC). The OCI-AML3 were grown in α-MEM supplemented with 20% fetal bovine serum, 100 U/mL penicillin, and 100 μg/mL streptomycin (P/S), and all other cell lines were cultured in RPMI and supplemented with a 10–20% fetal bovine serum and 100 U/mL penicillin and 100 μg/mL streptomycin. The cells were kept at 37 °C in a 5% CO2 incubator. Prior to screening, the appropriate cell concentration for all cell lines was determined. For the cell lines’ treatments, cells were maintained as follows: OCI-AML3 at 0.25 × 10^6/mL, OCI-AML2 and IMS-M2 at 0.35 × 10^6/mL, and SKM-1 and MOLM-13 at 0.5 × 10^6/mL. The compounds were re-suspended at 10 mM stock in DMSO. Further dilutions were performed in phosphate-buffer-saline (PBS) for pharmacological experiments. The cells were exposed to compounds at different concentrations for the indicated time points and sampled as described below. Briefly, the cells (4 × 10^5/mL) were seeded in 384-well plate and treated for 48 h with various concentrations (0.001 μM to 100 μM) of either one of the compounds, T101, T126, and T159, or NSC348884, as a positive control. Each plate included DMSO at 0.1% as a negative control. The metabolic cell activity was measured by using the CellTiter Blue proliferation agent (Roche) as described in the manufacturer’s procedure. Briefly, CellTiter Blue solution (Resazaurin) was added to each well and the plates were incubated at 37 °C with 5% CO2 for 4 h. During the incubation time, the resazurin is reduced to fluorescent resorufin in metabolically and proliferating living cells. The fluorescence intensity was measured using the automated Tecan plate reader (Tecan Group Ltd., Männedorf, Switzerland) at an excitation/emission wavelength of 531/572 nm. The fluorescence readouts were reported as relative fluorescence units (RFU) and read on a luminescence plate reader (Infinite 200 Pro, Tecan, CA, USA). The dose response curves ([…] (IC50)) were obtained by non-linear regression analysis using the GraphPad Prism 5.0 program. The concentration is shown as a logarithmic function. All the experiments were performed at least in triplicate, with technical repetition. The results are expressed as mean ± standard error of the mean (SEM). For the Colony Forming Unit (CFU) assay, 10 × 10^6 CD34+ human hematopoietic progenitors were received from unique healthy donors, upon signed informed consent, and were cultured in SFEM II (Serum-free medium) and P/S at a density of 1 × 10^6/mL with cytokines that are important for cell division and self-renewal: fms-like tyrosine kinase 3 (FLT3)-ligand, FLT3L (100 ng/mL), Stem Cell Factor, SCF (100 ng/mL) and Trombopoietin, and TPO (50 ng/mL) for 48 h before plating them on a Methocult medium.

[6] = tested on: OCI-AML3; assay: CellTiter Blue cell viability assay; conditions: Homo sapiens, OCI-AML-3; OCI-AML3, 48 h; read-out: cellular IC50
Text: as §2

[7] = tested on: OCI-AML2; assay: CellTiter Blue cell viability assay; conditions: Homo sapiens, OCI-AML2, 48 h; read-out: cellular IC50
Text: as §2

[8] = tested on: MOLM-13; assay: CellTiter Blue cell viability assay; conditions: Homo sapiens, MOLM-13, 48 h; read-out: cellular IC50
Text: as §2

[9] = tested on: IMS-M2; assay: CellTiter Blue cell viability assay; conditions: Homo sapiens, IMS-M2, 48 h; read-out: cellular IC50
Text: as §2

[10] = tested on: IMS-M2; assay: Cell growth, viable cell count by trypan blue exclusion; conditions: IMS-M2, 5 µM, at 48 and 72 h

colony forming ability of human CD34+ HSPC ([4]; 1 µM): did not inhibit | colony forming ability of human CD34+ HSPC ([4]; 2.5 µM): did not inhibit | decrease of clonogenic efficiency compared to untreated control ([4]; 5 µM): about 20% | IC50 [5]: 6.9 µM | IC50 [6]: 4.2 µM | IC50 [7]: 2.4 µM | IC50 [8]: 9.2 µM
Compound: O=c1[nH]c(-c2ccc(O)c(O)c2)nc2sc3c(c12)CCCC3 [T126]
induction of apoptosis [1]: significant level of apoptosis | induction of apoptosis [2]: significant level of apoptosis | induction of apoptosis [3]: significant level of apoptosis | IC50 [9]: 4.3 µM | cell growth inhibition [10]: significant cell growth inhibition
